The text below walks through data of US20090062291A1, “PHOSPHODIESTERASE 10 INHIBITORS” (priority 2007, published 2009).

The experiment concerns the target T1, mPDE10A7 (Mus musculus, UniProt Q8CA95).
T1 sequence (Q8CA95 446-763 limits assumed): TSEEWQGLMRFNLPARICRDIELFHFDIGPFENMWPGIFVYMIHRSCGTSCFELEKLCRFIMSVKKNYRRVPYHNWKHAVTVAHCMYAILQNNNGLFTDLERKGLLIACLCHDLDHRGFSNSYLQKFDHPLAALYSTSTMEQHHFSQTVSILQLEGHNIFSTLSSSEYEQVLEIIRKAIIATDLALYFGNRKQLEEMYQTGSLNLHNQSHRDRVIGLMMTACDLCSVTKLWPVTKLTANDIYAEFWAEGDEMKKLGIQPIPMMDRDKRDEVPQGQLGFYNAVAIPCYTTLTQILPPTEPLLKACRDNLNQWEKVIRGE
Put plainly: mPDE10A7 enzyme inhibition (IMAP fluorescence polarization). The note with it: fluorescein labeled cAMP or cGMP substrate, 30 min at room temperature. It counts as biochemical. How it is done: Enzyme Activity. To analyze the enzyme activity, 5 μL of serial diluted mPDE10A7 containing lysate were incubated with equal volumes of diluted (100-fold) fluorescein labeled cAMP or cGMP for 30 min in MDC HE 96-well assay plates (Molecular Devices Corp., Sunnyvale Calif.) at room temperature. Both the enzyme and the substrates were diluted in the following assay buffer: Tris/HCl (pH 8.0) 50 mM, MgCl2 5 mM, 2-mercaptoethanol 4 mM, and BSA 0.33 mg/mL. After incubation, the reaction was stopped by adding 20 μL of diluted (400-fold) binding reagents and was incubated for an hour at room temperature. The plates were counted in an Analyst GT (Molecular Devices) for fluorescence polarization. An IMAP assay kit (Molecular Devices) was used to assess enzyme properties of mPDE10A7. Data were analyzed with SOFTMAX PRO software (Molecular Devices).
Enzyme Inhibition. To check the inhibition profile, 10 μL of serial diluted compounds were incubated with 30 μl of diluted PDE enzymes in a 96-well polystyrene assay plate for 30 min at room temperature. After incubation, 5 μL of the compound-enzyme mixture were aliquoted into a MDC HE black plate, mixed with 5 μL of 100-fold diluted fluorescein labeled substrates (cAMP or cGMP), and incubated for 30 min at room temperature. The reaction was stopped by adding 20 μL of diluted binding reagents and counted in an Analyst GT for fluorescence polarization. The data were analyzed with SoftMax Pro.
The IC50 values of a representative number of compounds of the invention in the above assay are as follows: […]
Background: Fluorescence polarisation rises when a labelled molecule tumbles more slowly, as on binding a larger partner.
As to `COc1cc2nncc(-c3cnc(N4CCC(C(C)(C)O)CC4)c(C4CC4)c3)c2cc1OC` [Cpd 1, 2-(1-(3-cyclopropyl-5-(6,7-dimethoxycinnolin-4-yl)pyridin-2-yl)piperidin-4-yl)propan-2-ol], the IC50 – broadly, the concentration that gives 50% inhibition – came to 1.1 nM.

Compound `COc1cc2nncc(-c3ccc(NC4CCCc5ncccc54)nc3)c2cc1OC` (stereo not shown) [Cpd 5] showed a 50% inhibitory concentration (IC50) of 2.3 nM.

Compound `COc1cc2nncc(-c3ccc(N[C@@H]4CCCc5ncccc54)nc3)c2cc1OC` [Cpd 6] had an IC50 of 2.6 nM.

For the compound `COc1cc2nncc(-c3ccc(NC4CCOc5ccccc54)nc3)c2cc1OC` (stereo not shown) [Cpd 8], inhibition was half-maximal at 12 nM (IC50).

In turn, `COc1cc2nncc(-c3ccc(N[C@H]4CCCc5c(Br)cccc54)nc3)c2cc1OC` [Cpd 11] displayed an IC50 of 258 nM.

For `COc1cc2nncc(-c3ccc(NC4CCc5cccc(OC)c5C4)nc3)c2cc1OC` (stereo not shown) [Cpd 14], the IC50 is 143 nM.

As for `COc1cc2nncc(-c3cnc(N4CCC(O)(c5cccnc5)CC4)c(C4CC4)c3)c2cc1OC` [Cpd 15], the IC50 amounted to 0.2 nM.

As to `C=Cc1cc(-c2cnnc3cc(OC)c(OC)cc23)cnc1NC(C)C` [Cpd 22], the IC50 amounted to 1.7 nM.

Regarding `COc1cc2nncc(-c3cnc(NC(C)C)c(C#N)c3)c2cc1OC` [Cpd 25], the IC50 came out at 12 nM.

Take `COc1cc2nncc(-c3cnc(NC(C)C)c(C(N)=O)c3)c2cc1OC` [Cpd 26]: the IC50 came to 9 nM.
